The values that follow come from patent publication US20080194666A1, “Combination Treatment Methods” (MEDICAL RESEARCH COUNCIL, priority 2005, published 2008).

This test has as its system cabbage root fly. Description: Swede field trials in Norway, cabbage root fly damage. The format is in vivo. On the procedure:
An extensive program of non-public field trials, which included five crops of swede were carried out. The field trials design was based around multiple applications of either ECOguard® liquid (garlic juice concentrate) or granules (wood flour granules impregnated with the garlic juice concentrate) and in four out of the five swede trials was referenced against Dimethoate as a standard.

Take `CNC(=O)CSP(=S)(OC)OC` [Dimethoate]: the “mean saleable yield (cat 1 + 2)” value (Ga-Fa) amounted to 7.27 kg/sample. Further, the “mean saleable yield (cat 1 + 2)” value (Mid-Troms) is 5.84 kg/sample. In addition, the “mean saleable yield (cat 1 + 2)” value (Sor Ost) is reported as 22.16 kg/sample. The “mean saleable yield (cat 1 + 2)” value (Toten) turned out to be 11.95 kg/sample. For the setting “in vivo”, the “Difference of Means, trt=1 (control) subtracted” value is on record as −0.3100; the “cabbage root fly damage versus control” value is recorded as “significantly reduced damage”; the “root damage index (RDI), % Change” value was −5.8%; the “root damage index (RDI), Mean” value is 43.90. Further, under “mean of four sites”, the “mean saleable yield (cat 1 + 2), Mean” value amounted to 11.95 kg/sample. For the same compound, the “mean saleable yield, % Change” value (mean of four sites versus control) is recorded as “+8%”.
